Patent publication US11110167B2 (priority 2011, dated 2021)

Test system: human peripheral blood mononuclear cells (PBMC)
Assay type: cell-based

Row | Substance | IL-1α and IL-1β mean gene expression upregulated | PPARg gene expression
1 | lipopolysaccharide [LPS] | 4.4 fold | consistently downregulated
2 | polyinosinic:polycytidylic acid [Poly(I:C)] | 4.1 fold | consistently downregulated
